Target: human IDO1 (Homo sapiens, UniProt P14902)
Experiment: Assessment of human IDO-1 inhibitory activity in HEK cells (human IDO1/HEK293 cells, kynurenine read-out with Ehrlich reagent, absorbance 490 nm)
Format: cell-based
Design: expressed in transfected cells
Settings: HEK Human IDO-1 cellular assay
Method in brief: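 Kynurenine output from stably IDO1-transfected HEK293 cells (10,000/well, phenol red-free RPMI, 10% FBS) after 20 h compound exposure at 37 °C. The reaction was stopped with 0.2% TCA and heated 30 min at 50 °C, then the supernatant was mixed with Ehrlich reagent and read at 490 nm. IC50 was set against DMSO and a 500 nM reference standard as 0 and 100% inhibition.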

Chain of human IDO1 (P14902 whole entry): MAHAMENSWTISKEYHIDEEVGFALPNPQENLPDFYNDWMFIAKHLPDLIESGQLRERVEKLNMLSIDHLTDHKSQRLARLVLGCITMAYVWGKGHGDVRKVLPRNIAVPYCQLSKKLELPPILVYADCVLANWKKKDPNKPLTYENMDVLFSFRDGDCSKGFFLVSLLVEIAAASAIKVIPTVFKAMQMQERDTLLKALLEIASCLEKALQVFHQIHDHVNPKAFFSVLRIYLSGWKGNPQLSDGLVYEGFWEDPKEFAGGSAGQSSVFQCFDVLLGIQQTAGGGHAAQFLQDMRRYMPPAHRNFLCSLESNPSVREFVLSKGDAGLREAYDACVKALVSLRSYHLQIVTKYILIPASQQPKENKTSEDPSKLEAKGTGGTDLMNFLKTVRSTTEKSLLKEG

SMILES	IC50
COCC(CC(=O)O)c1ccc(N(CC(C)C)C2CCCCC2)c(NC(=O)Nc2ccc(OC)cc2F)c1 (single isomer, unassigned) [Example 1233, 3-(4-(Cyclohexyl(isobutyl)amino)-3-(3-(2-fluoro-4-methoxyphenyl)ureido)phenyl)-4-methoxybutanoic acid]	< 5 nM
CCOc1ccc(NC(=O)Nc2cc(C(COC)CC(=O)O)ccc2N(CC(C)C)C2CCCCC2)cc1 (single isomer, unassigned) [Example 1235, 3-(4-(Cyclohexyl(isobutyl)amino)-3-(3-(4-ethoxyphenyl)ureido)phenyl)-4-methoxybutanoic acid]	< 5 nM
COCC(CC(=O)O)c1ccc(N(CC(C)C)C2CCCCC2)c(NC(=O)Cc2ccc(C)cc2)c1 (single isomer, unassigned) [Example 1237, 3-(4-(Cyclohexyl(isobutyl)amino)-3-(2-(p-tolyl)acetamido)phenyl)-4-methoxybutanoic acid]	< 50 nM
COCC(CC(=O)O)c1ccc(N(CC(C)C)C2CCCCC2)c(NC(=O)Nc2ccc(OC(F)(F)F)cc2)c1 (single isomer, unassigned) [Example 1244, 3-(4-(Cyclohexyl(isobutyl)amino)-3-(3-(4-(trifluoromethoxy)phenyl)ureido)phenyl)-4-methoxybutanoic acid]	< 5 nM
COCC(CC(=O)O)c1ccc(N(CC(C)C)C2CCCCC2)c(NC(=O)Cc2ccc(Cl)cc2F)c1 (single isomer, unassigned) [Example 1245, 3-(3-(2-(4-Chloro-2-fluorophenyl)acetamido)-4-(cyclohexyl(isobutyl)amino)phenyl)-4-methoxybutanoic acid]	< 5 nM
Cc1ccc(CC(=O)Nc2cc(C(CC(=O)O)C3CC3)ccc2N(CC(C)C)C2CCCCC2)cc1 (single isomer, unassigned) [Example 1247, 3-(4-(Cyclohexyl(isobutyl)amino)-3-(2-(p-tolyl)acetamido)phenyl)-3-cyclopropylpropanoic acid]	< 5 nM
CCN(c1ccc([C@@H](COC)CC(=O)NS(C)(=O)=O)cc1Nc1ccc(C#N)cc1)C1CCOCC1 (stereo in doubt) [Example 1077, 3-(3-((4-Cyanophenyl)amino)-4-(ethyl(tetrahydro-2H-pyran-4-yl)amino)phenyl)-4-methoxy-N-(methylsulfonyl)butanamide]	< 50 nM
CCOc1ncc(Nc2cc(C(C)(C)CC(=O)O)ccc2N(CC)C2CCC(C)(O)CC2)cn1 (stereo not drawn) [Example 3, 3-(3-((2-ethoxypyrimidin-5-yl)amino)-4-(ethyl(4-hydroxy-4-methylcyclohexyl)amino)phenyl)-3-methylbutanoic acid]	> 50 nM
Cc1nc2ccc(Nc3cc(C(C)(C)CC(=O)O)ccc3N(CC(C)C)CC(C)C)cc2s1 [Example 146, 3-(4-(diisobutylamino)-3-((2-methylbenzo[d]thiazol-6-yl)amino)phenyl)-3-methylbutanoic acid]	> 50 nM
CCOc1ncc(Nc2cc(C(C)(C)CC(=O)O)ccc2N(CC(C)C)CC(C)C)cn1 [Example 148, 3-(4-(diisobutylamino)-3-((2-ethoxypyrimidin-5-yl)amino)phenyl)-3-methyl butanoic acid]	< 50 nM
CCN(c1ccc(C(C)(C)CC(=O)O)cc1Nc1ccc2nc(C)sc2c1)C1CCOCC1 [Example 164, 3-(4-(ethyl(tetrahydro-2H-pyran-4-yl)amino)-3-((2-methylbenzo[d]thiazol-6-yl)amino)phenyl)-3-methylbutanoic acid]	< 50 nM
CCOc1ccc(NC(=O)Nc2cc(C(C)(C)CC(=O)O)ccc2N(CC)C2CCOCC2)cc1 [Example 166, 3-(3-(3-(4-Ethoxyphenyl)ureido)-4-(ethyl(tetrahydro-2H-pyran-4-yl)amino)phenyl)-3-methylbutanoic acid]	> 50 nM
CCN(c1ccc(C(C)(C)CC(=O)O)cc1NC(=O)Nc1ccc(C)cc1)C1CCOCC1 [Example 167, 3-(4-(Ethyl(tetrahydro-2H-pyran-4-yl)amino)-3-(3-(p-tolyl)ureido)phenyl)-3-methylbutanoic acid]	< 50 nM
CC[C@H](CC(=O)O)c1ccc(N(CC(C)C)C2CCS(=O)(=O)CC2)c(Nc2ccc3sc(C)nc3c2)c1 [Example 214, 3-(4-((1,1-Dioxidotetrahydro-2H-thiopyran-4-yl)(isobutyl)amino)-3-((2-methylbenzo[d]thiazol-5-yl)amino)phenyl)pentanoic acid]	< 50 nM
C[C@@H]1CN(c2ccc(C(C)(C)CC(=O)O)cc2Nc2ccc(C#N)cc2)C[C@H](C)O1 [Example 731, 3-(3-((4-Cyanophenyl)amino)-4-((2S,6R)-2,6-dimethylmorpholino)phenyl)-3-methylbutanoic acid]	< 50 nM

Next, values leading:

IC50	SMILES
> 50 nM	COCC(CC(=O)O)c1ccc(N(CC(C)C)C2CCCCC2)c(NC(=O)Cc2cc(C)on2)c1 (single isomer, unassigned) [Example 1234, 3-(4-(Cyclohexyl(isobutyl)amino)-3-(2-(5-methylisoxazol-3-yl)acetamido)phenyl)-4-methoxybutanoic acid]
< 5 nM	CCOc1ccc(NC(=O)Nc2cc(C(COC)CC(=O)O)ccc2N(CC(C)C)C2CCCCC2)c(F)c1 (single isomer, unassigned) [Example 1236, 3-(4-(Cyclohexyl(isobutyl)amino)-3-(3-(4-ethoxy-2-fluorophenyl)ureido)phenyl)-4-methoxybutanoic acid]
< 50 nM	CCOc1ccc(CC(=O)Nc2cc(C(COC)CC(=O)O)ccc2N(CC(C)C)C2CCCCC2)cc1 (single isomer, unassigned) [Example 1241, 3-(4-(Cyclohexyl(isobutyl)amino)-3-(2-(4-ethoxyphenyl)acetamido)phenyl)-4-methoxybutanoic acid]
< 50 nM	COCC(CC(=O)O)c1ccc(N(CC(C)C)C2CCCCC2)c(NC(=O)Nc2ccc(OC(F)(F)F)cc2)c1 (single isomer, unassigned) [Example 1243, 3-(4-(Cyclohexyl(isobutyl)amino)-3-(3-(4-(trifluoromethoxy)phenyl)ureido)phenyl)-4-methoxybutanoic acid]
< 5 nM	CCOc1ccc(CC(=O)Nc2cc(C(CC(=O)O)C3CC3)ccc2N(CC(C)C)C2CCCCC2)cc1 (single isomer, unassigned) [Example 1248, 3-(4-(Cyclohexyl(isobutyl)amino)-3-(2-(4-ethoxyphenyl)acetamido)phenyl)-3-cyclopropylpropanoic acid]
< 50 nM	Cc1cc(CC(=O)Nc2cc(C(CC(=O)O)C3CC3)ccc2N(CC(C)C)C2CCCCC2)no1 (single isomer, unassigned) [Example 1251, 3-(4-(Cyclohexyl(isobutyl)amino)-3-(2-(5-methylisoxazol-3-yl)acetamido)phenyl)-3-cyclopropylpropanoic acid]
< 50 nM	CCOc1ncc(Nc2cc([C@@H](CC)CC(=O)NS(C)(=O)=O)ccc2N(CC)C2CCOCC2)cn1 (stereo in doubt) [Example 1076, 3-(3-((2-Ethoxypyrimidin-5-yl)amino)-4-(ethyl(tetrahydro-2H-pyran-4-yl)amino)phenyl)-N-(methylsulfonyl)pentanamide]
< 5 nM	CCN(c1ccc(C(C)(C)CC(=O)O)cc1Nc1ccc(Cl)cc1)C1CCC(C)(O)CC1 (stereo not drawn) [Example 1, 3-(3-((4-Chlorophenyl)amino)-4-(ethyl(4-hydroxy-4-methylcyclohexyl)amino)phenyl)-3-methylbutanoic acid]
< 5 nM	CCN(c1ccc(C(C)(C)CC(=O)O)cc1Nc1ccc(F)cc1)C1CCC(C)(O)CC1 (stereo not drawn) [Example 2, 3-(4-(ethyl(4-hydroxy-4-methylcyclohexyl)amino)-3-((4-fluorophenyl)amino)phenyl)-3-methylbutanoic acid]
< 50 nM	CCN(c1ccc(C(C)(C)CC(=O)O)cc1NC(=O)Nc1ccc(C)cc1)C1CCC(C)(O)CC1 (stereo not drawn) [Example 5, 3-(4-(Ethyl(4-hydroxy-4-methylcyclohexyl)amino)-3-(3-(p-tolyl)ureido)phenyl)-3-methylbutanoic acid]
< 50 nM	CC(C)CN(CC(C)C)c1ccc(C(C)(C)CC(=O)O)cc1Nc1ccc2c(c1)OC(F)(F)O2 [Example 147, 3-(3-((2,2-difluorobenzo[d][1,3]dioxol-5-yl)amino)-4-(diisobutylamino)phenyl)-3-methylbutanoic acid]
< 50 nM	CCOc1ncc(Nc2cc(C(C)(C)CC(=O)O)ccc2N(CC)C2CCOCC2)cn1 [Example 159, 3-(3-((2-Ethoxypyrimidin-5-yl)amino)-4-(ethyl(tetrahydro-2H-pyran-4-yl)amino)phenyl)-3-methylbutanoic acid]
< 5 nM	CCN(c1ccc(C(C)(C)CC(=O)O)cc1Nc1ccc(C#N)cc1)C1CCOCC1 [Example 160, 3-(3-((4-cyanophenyl)amino)-4-(ethyl(tetrahydro-2H-pyran-4-yl)amino)phenyl)-3-methylbutanoic acid]
< 5 nM	CCN(c1ccc(C(C)(C)CC(=O)O)cc1Nc1ccc2c(c1)OC(F)(F)O2)C1CCOCC1 [Example 161, 3-(3-((2,2-difluorobenzo[d][1,3]dioxol-5-yl)amino)-4-(ethyl (tetrahydro-2H-pyran-4-yl)amino)phenyl)-3-methylbutanoic acid]
< 50 nM	CCN(c1ccc(C(C)(C)CC(=O)O)cc1Nc1cnc(OC)nc1)C1CCOCC1 [Example 162, 3-(4-(ethyl(tetrahydro-2H-pyran-4-yl)amino)-3-((2-methoxypyrimidin-5-yl)amino)phenyl)-3-methylbutanoic acid]
< 5 nM	CCN(c1ccc(C(C)(C)CC(=O)O)cc1Nc1cnc(OCC2CC2)nc1)C1CCOCC1 [Example 163, 3-(3-((2-(cyclopropylmethoxy)pyrimidin-5-yl)amino)-4-(ethyl (tetrahydro-2H-pyran-4-yl)amino)phenyl)-3-methylbutanoic acid]
< 50 nM	CCC(CC(=O)O)c1ccc(N(CC2CC2)C2CCOCC2)c(NC(=O)Nc2ccc(C)cc2)c1 (stereo not drawn) [Example 698]
< 50 nM	C[C@@H]1CN(c2ccc(C(C)(C)CC(=O)O)cc2Nc2ccc(F)cc2)C[C@H](C)O1 [Example 732, 3-(4-((2S,6R)-2,6-dimethylmorpholino)-3-((4-fluorophenyl)amino)phenyl)-3-methylbutanoic acid]
